Measurements: the NIST ThermoML archive (doi:10.1021/acs.jced.8b01039)

How the values were obtained:
[1] = xn = mol fraction of the nth substance listed; details: Vibrating wire viscometry
[2] = Vibrating wire viscometry

CC(F)(F)F [1,1,1-trifluoroethane] + C=C(F)C(F)(F)F
[1], x1 = 0.5
Details	viscosity [mPa·s]
252.1 K, 2010 kPa, Liquid	0.2421
252.1 K, 2520 kPa, Liquid	0.2439
252.1 K, 3030 kPa, Liquid	0.2451
273.2 K, 910 kPa, Liquid	0.1824
273.2 K, 2010 kPa, Liquid	0.1859
273.2 K, 2500 kPa, Liquid	0.187
273.2 K, 3000 kPa, Liquid	0.1888
294.4 K, 1250 kPa, Liquid	0.1424
294.4 K, 2010 kPa, Liquid	0.1453
294.4 K, 2510 kPa, Liquid	0.1469
294.4 K, 3020 kPa, Liquid	0.1482
323.2 K, 970 kPa, Gas	0.0124
343.2 K, 1060 kPa, Gas	0.0133
343.2 K, 1840 kPa, Gas	0.014
363.2 K, 2040 kPa, Gas	0.0149
363.2 K, 2750 kPa, Gas	0.016
383.2 K, 3070 kPa, Gas	0.0168

FC(F)C(F)(F)F [pentafluoroethane]
[2]
Details	viscosity [mPa·s]
273.2 K, 1440 kPa, Liquid	0.2154
273.2 K, 3260 kPa, Liquid	0.22
273.2 K, 4880 kPa, Liquid	0.224
273.2 K, 6650 kPa, Liquid	0.2283
273.2 K, 8370 kPa, Liquid	0.2323
273.2 K, 10120 kPa, Liquid	0.2364
273.2 K, 11770 kPa, Liquid	0.2403
273.2 K, 13330 kPa, Liquid	0.2438
293.3 K, 1680 kPa, Liquid	0.1739
293.3 K, 4160 kPa, Liquid	0.1801
293.3 K, 6420 kPa, Liquid	0.1854
293.3 K, 8490 kPa, Liquid	0.1902
293.3 K, 10920 kPa, Liquid	0.1952
293.3 K, 13210 kPa, Liquid	0.2004
293.3 K, 15530 kPa, Liquid	0.2052
293.3 K, 17700 kPa, Liquid	0.2097
313.2 K, 1960 kPa, Liquid	0.14
313.2 K, 3810 kPa, Liquid	0.1447
313.2 K, 5550 kPa, Liquid	0.1487
313.2 K, 7210 kPa, Liquid	0.1525
313.2 K, 9450 kPa, Liquid	0.1576
313.2 K, 11270 kPa, Liquid	0.1616
313.2 K, 13140 kPa, Liquid	0.1653
333.2 K, 630 kPa, Gas	0.0116
333.2 K, 810 kPa, Gas	0.0116
333.2 K, 1010 kPa, Gas	0.0117
333.2 K, 1300 kPa, Gas	0.0117

FC(F)C(F)(F)F [pentafluoroethane] + CC(F)F
[1], x1 = 0.5
Details	viscosity [mPa·s]
252.1 K, 1020 kPa, Liquid	0.2923
252.1 K, 2000 kPa, Liquid	0.2944
252.1 K, 2500 kPa, Liquid	0.2966
252.1 K, 3000 kPa, Liquid	0.299
252.1 K, 4000 kPa, Liquid	0.3024
263.1 K, 1510 kPa, Liquid	0.2558
263.1 K, 2010 kPa, Liquid	0.2574
263.1 K, 2510 kPa, Liquid	0.2593
263.1 K, 3020 kPa, Liquid	0.2612
263.1 K, 4010 kPa, Liquid	0.2643
274.5 K, 1510 kPa, Liquid	0.2181
274.5 K, 2000 kPa, Liquid	0.2198
274.5 K, 2510 kPa, Liquid	0.222
274.5 K, 3020 kPa, Liquid	0.2233
274.5 K, 4010 kPa, Liquid	0.2261
294.3 K, 1200 kPa, Liquid	0.1676
294.3 K, 1500 kPa, Liquid	0.1688
294.3 K, 2000 kPa, Liquid	0.1704
294.3 K, 3000 kPa, Liquid	0.1737
294.3 K, 4000 kPa, Liquid	0.1777
323.2 K, 990 kPa, Gas	0.0124
343.2 K, 1090 kPa, Gas	0.0132
343.2 K, 1800 kPa, Gas	0.014
363.2 K, 2010 kPa, Gas	0.0147
363.2 K, 2780 kPa, Gas	0.0157
383.2 K, 3130 kPa, Gas	0.0165

F/C=C/C(F)(F)F [trans-1,3,3,3-tetrafluoropropene] + C=C(F)C(F)(F)F
[1], x1 = 0.5
Details	viscosity [mPa·s]
252.3 K, 1000 kPa, Liquid	0.2935
252.3 K, 2010 kPa, Liquid	0.2969
252.3 K, 3020 kPa, Liquid	0.3004
273.2 K, 1000 kPa, Liquid	0.2271
273.2 K, 1960 kPa, Liquid	0.2316
273.2 K, 2980 kPa, Liquid	0.2352
294.2 K, 1010 kPa, Liquid	0.179
294.2 K, 1980 kPa, Liquid	0.1824
294.2 K, 3000 kPa, Liquid	0.1858
348.2 K, 950 kPa, Gas	0.0132
368.2 K, 1050 kPa, Gas	0.0139
368.2 K, 1710 kPa, Gas	0.0148
388.2 K, 1910 kPa, Gas	0.0156
388.2 K, 2700 kPa, Gas	0.0168
403.2 K, 3020 kPa, Gas	0.0175

F/C=C/C(F)(F)F [trans-1,3,3,3-tetrafluoropropene] + CC(F)(F)F
[1], x2 = 0.5
Details	viscosity [mPa·s]
252.3 K, 1030 kPa, Liquid	0.2653
252.3 K, 2020 kPa, Liquid	0.2688
252.3 K, 3090 kPa, Liquid	0.2721
273.2 K, 1070 kPa, Liquid	0.2044
273.2 K, 2060 kPa, Liquid	0.208
273.2 K, 3130 kPa, Liquid	0.2113
293.2 K, 1130 kPa, Liquid	0.1573
293.2 K, 2080 kPa, Liquid	0.1612
293.2 K, 3090 kPa, Liquid	0.1652
323.2 K, 970 kPa, Gas	0.0123
346.2 K, 1080 kPa, Gas	0.0131
346.2 K, 1910 kPa, Gas	0.0137
363.2 K, 2120 kPa, Gas	0.0146
363.2 K, 2720 kPa, Gas	0.0155
383.2 K, 3040 kPa, Gas	0.0162

F/C=C/C(F)(F)F [trans-1,3,3,3-tetrafluoropropene] + FC(F)C(F)(F)F
[1], x2 = 0.4933
Details	viscosity [mPa·s]
252.3 K, 2010 kPa, Liquid	0.3181
252.3 K, 3020 kPa, Liquid	0.3224
273.2 K, 1290 kPa, Liquid	0.2388
273.2 K, 1990 kPa, Liquid	0.2407
273.2 K, 3010 kPa, Liquid	0.2451
294.2 K, 1240 kPa, Liquid	0.1821
294.2 K, 2000 kPa, Liquid	0.1861
294.2 K, 3010 kPa, Liquid	0.1906
323.2 K, 960 kPa, Gas	0.0133
343.2 K, 1060 kPa, Gas	0.0143
343.2 K, 1770 kPa, Gas	0.0149
363.2 K, 1960 kPa, Gas	0.016
363.2 K, 2770 kPa, Gas	0.0173
383.2 K, 3110 kPa, Gas	0.0182
